US10201610B2, “Interference peptides and use thereof” (The University of Western Australia, priority 2014, dated 2019)
Ends that are not written are not given here.

Tests used:
[1] = tested on: caspase 3 activity in SUM149PT cells; assay: Caspase-3 colorimetric assay in SUM149PT cells; assay type: cell-based, human; settings: 8 hours, compared with non-treated or iPep624ΔHEX-treated cells
Source text: The EN1-iPeps and iPep controls were first tested in SUM149PT cells carrying high EN1 expression. Cells were first treated with a full-length 29-mer peptide (iPep624) comprising the N-terminal, less conserved amino acid sequences, the hexamotif, and the C-terminal tail. As a control, the inventors generated the iPep624ΔHEX in which the hexamotif was mutated from the wild type (wt) WPAWVY (SEQ ID NO: 13) to the GAAGAG (SEQ ID NO: 15) sequence. These mutations were expected to dramatically abolish the activity of the peptide. Both peptides were included in the culture medium of the basal cancer cells in increasing (0-100 μM) concentrations and incubated for 8 hours at 37° C. Treated cells were first analyzed using the Cell Titer Glo assay, which monitors metabolic viability. […] This calculated value of IC50 is in the range of concentrations observed with other peptides delivered with CPPs.
Detection of apoptosis was performed with a Caspase-3 colorimetric assay (Sigma-Aldrich, St Louis, Mo.) according to the manufacturer's instructions.

[2] = target: T1, Glutamyl-Prolyl tRNA synthetase (EPRS) (Homo sapiens, UniProt P07814); assay: Affinity capture immunoprecipitation with biotinylated iPeps, EPRS detection; assay type: binding; settings: biotinylated iPep as bait, versus control peptide iPep624ΔHEX
T1 construct: endogenous in cells; host or cells: SUM149PT total protein extract
Source text: To investigate the binding partners of the iPeps in cancer cells, the inventors carried out affinity capture immunoprecipitation experiments using the biotinylated active iPep624 as bait, and the iPep624ΔHEX as negative control. They used total protein extracts from SUM149PT cells to capture endogenous proteins able to bind these peptides in vitro. Elutes were loaded in a 1D-SDS PAGE gel to visualize the enrichment of individual proteins. […] In addition, overexpression of EN1 cDNA into two different breast cell lines confirmed the interaction of the full length EN1 with the endogenous EPRS inside the cells (FIG. 6c). […]
(§1) The iPep624 and iPep624ΔHEX were coupled to a C-terminal biotin and immobilized in streptavidin-coated beads. […] Detection was performed with ECL Detection System (GE Healthcare) and quantitated using Image J v1.46 (ImageJ, NCBI).
Proteins were eluted from the streptavidin beads coated with biotinylated iPep624 or iPep624ΔHEX, resuspended with SDS PAGE sample buffer and applied to SDS-PAGE (10% acrylamide; FIG. 10). Gels were stained with Coomassie brilliant blue and select bands unique to the EN1 immunoprecipitates were excised, digested with trypsin, and the peptides were extracted and analyzed using a MALDI-TOF/TOF mass spectrometer (AB Sciex 4800 Plus). […]

PAX6 = target: T2, PAX6 (Homo sapiens, UniProt P26367); assay: Immunoprecipitation and western blotting of TFHDs from SUM149PT extracts; assay type: binding; settings: versus control peptide
T2 construct: endogenous in cells; host or cells: SUM149PT total protein extract
Source text: (§2) To investigate the binding partners of the iPeps in cancer cells, the inventors carried out affinity capture immunoprecipitation experiments using the biotinylated active iPep624 as bait, and the iPep624ΔHEX as negative control. They used total protein extracts from SUM149PT cells to capture endogenous proteins able to bind these peptides in vitro. Elutes were loaded in a 1D-SDS PAGE gel to visualize the enrichment of individual proteins. […] In addition, overexpression of EN1 cDNA into two different breast cell lines confirmed the interaction of the full length EN1 with the endogenous EPRS inside the cells (FIG. 6c). To ascertain whether some downstream well-known effectors of EPRS were also differentially regulated by the iPeps, we performed real time PCR to detect mRNA levels of COLA1, COLA2, S1004A and DDIT3 (CHOP). […] COLA1 and COLA2 encode collagen proteins highly enriched by the amino acid proline and S1004A is a protein involved in metastasis and fibrosis. […] In contrast, the amino acid stress factor DDIT3 is stimulated upon EPRS inhibition. […]
as §1

[3] = tested on: PBX family members (notably, PBX1); assay: as above; assay type: binding, human; settings: versus control peptide
Source text: as §2, §1

T1 sequence (P07814 whole entry): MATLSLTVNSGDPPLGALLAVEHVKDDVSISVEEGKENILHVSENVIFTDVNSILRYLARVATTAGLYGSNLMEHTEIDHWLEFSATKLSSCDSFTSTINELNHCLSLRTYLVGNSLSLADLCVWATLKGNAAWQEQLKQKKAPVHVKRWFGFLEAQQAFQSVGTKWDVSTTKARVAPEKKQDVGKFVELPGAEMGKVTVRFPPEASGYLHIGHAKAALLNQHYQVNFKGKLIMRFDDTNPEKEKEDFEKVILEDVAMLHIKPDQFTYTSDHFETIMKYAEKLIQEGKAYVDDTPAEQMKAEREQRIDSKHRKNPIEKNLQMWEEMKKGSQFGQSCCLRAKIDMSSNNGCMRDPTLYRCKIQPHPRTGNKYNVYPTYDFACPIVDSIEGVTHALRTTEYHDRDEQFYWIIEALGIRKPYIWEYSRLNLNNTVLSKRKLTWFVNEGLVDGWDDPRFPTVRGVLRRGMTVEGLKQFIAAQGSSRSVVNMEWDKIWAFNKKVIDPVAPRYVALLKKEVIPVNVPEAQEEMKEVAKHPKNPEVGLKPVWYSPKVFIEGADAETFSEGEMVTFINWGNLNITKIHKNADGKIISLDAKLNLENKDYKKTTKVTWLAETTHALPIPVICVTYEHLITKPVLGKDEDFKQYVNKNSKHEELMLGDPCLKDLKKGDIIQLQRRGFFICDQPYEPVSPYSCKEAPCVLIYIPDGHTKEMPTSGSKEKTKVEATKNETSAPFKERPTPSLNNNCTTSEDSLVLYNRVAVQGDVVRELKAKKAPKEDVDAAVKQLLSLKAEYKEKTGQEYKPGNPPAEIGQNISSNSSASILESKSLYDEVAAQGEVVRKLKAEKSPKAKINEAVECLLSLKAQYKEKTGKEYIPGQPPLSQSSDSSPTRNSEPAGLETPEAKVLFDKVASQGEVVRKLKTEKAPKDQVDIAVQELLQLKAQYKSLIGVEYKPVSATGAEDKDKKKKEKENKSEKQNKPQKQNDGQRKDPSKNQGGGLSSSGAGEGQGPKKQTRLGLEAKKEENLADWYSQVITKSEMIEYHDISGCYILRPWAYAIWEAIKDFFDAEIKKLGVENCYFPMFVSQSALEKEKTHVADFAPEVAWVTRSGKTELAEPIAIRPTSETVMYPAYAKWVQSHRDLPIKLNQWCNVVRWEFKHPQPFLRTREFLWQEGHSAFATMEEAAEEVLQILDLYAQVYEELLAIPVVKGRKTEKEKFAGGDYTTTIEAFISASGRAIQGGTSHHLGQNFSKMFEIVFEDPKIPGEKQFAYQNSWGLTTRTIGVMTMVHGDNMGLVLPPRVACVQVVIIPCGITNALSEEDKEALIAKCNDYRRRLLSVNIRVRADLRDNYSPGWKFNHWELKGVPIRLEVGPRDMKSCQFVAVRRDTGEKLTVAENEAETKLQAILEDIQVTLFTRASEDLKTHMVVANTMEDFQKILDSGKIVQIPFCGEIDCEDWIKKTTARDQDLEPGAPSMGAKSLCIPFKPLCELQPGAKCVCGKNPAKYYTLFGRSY
T2 sequence (P26367 whole entry): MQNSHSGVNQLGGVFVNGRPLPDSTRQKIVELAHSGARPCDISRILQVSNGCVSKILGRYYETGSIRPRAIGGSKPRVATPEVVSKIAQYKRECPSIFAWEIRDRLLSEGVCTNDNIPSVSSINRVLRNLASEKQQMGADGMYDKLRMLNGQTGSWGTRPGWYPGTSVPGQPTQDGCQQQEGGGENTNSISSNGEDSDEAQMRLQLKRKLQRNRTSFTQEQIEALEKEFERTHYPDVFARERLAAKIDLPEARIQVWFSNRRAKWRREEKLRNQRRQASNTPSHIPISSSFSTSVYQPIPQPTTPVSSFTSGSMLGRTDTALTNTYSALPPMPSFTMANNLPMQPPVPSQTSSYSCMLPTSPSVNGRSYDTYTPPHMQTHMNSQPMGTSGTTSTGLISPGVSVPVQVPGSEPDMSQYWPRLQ

binding of EPRS from SUM149PT extracts [2]: preferential binding interaction
interaction with PAX6 (PAX6): specific interactions
Sequence: KKKRKVTDSQQPLVWPAWVYCTRYSDRPS [iPep624]
caspase 3 activity [1]: significantly higher
interaction with PBX family members (notably, PBX1) [3]: specific interactions
